In US12083119B2, “Methods and compositions for treating viral or virally-induced conditions” (VIRACTA SUBSIDIARY, INC., priority 2010, dated 2024):

Tests used:
EBV TK = test: Thymidine kinase expression assay (RT and real-time PCR of TK mRNA); type: cell-based, Epstein-Barr virus; parameters: TK expression: dose or concentration left out as unconfirmed
Method: To measure the relative level of TK mRNA in various total RNA preparations, reverse transcription and quantitative PCR using real time PCR technology was used. Five micrograms of total RNA was reverse-transcribed using random hexamer primers and Superscript III cDNA synthesis kit (Invitrogen). The cDNA was diluted to a final volume of 60 μl with sterile water, 8 μl of which was then used in each real time PCR reaction in an ABI 7500 Sequencher using SYBR-Green technology. Primers used for the amplification of TK were EBV-TK1-F: 5′-[…]-3′ (SEQ ID NO: 1); EBV-TK1-R: 5′-[…]-3′ (SEQ ID NO: 2). The β-actin mRNA levels in those samples were determined similarly using β-actin-specific primers Actin/hu-F: 5′-[…]-3′ (SEQ ID NO: 3); Actin/hu-R: 5′-[…]-3′ (SEQ ID NO: 4). The relative level of TK expression in a sample was calculated following normalization of β-actin expression level.
(§1) The induction of lytic phase was assayed in EBV-positive lymphoma cell lines exposed to different HDAC inhibitors (HDACi) for 24-48 hrs, then the expression of EBV TK and other EBV transcripts by RT-PCR analysis was quantified. To determine tumor cytotoxic activity of the combination of HDACi and GCV, EBV+ lymphoma cells were exposed to a range of concentrations of HDAC inhibitors and ganciclovir (GCV) for 3 days and then to GCV alone for another 3 days. Efficacy of a particular HDAC inhibitor in the combination treatment approach was then determined by enumerating living cells. A general experimental protocol is described below.
P3HR1 cells were seeded in 60 mm plates containing 3×10^6 cells in 3 ml of fresh growth media. Appropriate concentrations of HDAC inhibitors were added to the plate and cells were incubated in the presence of HDAC inhibitors for 6 h, 24 h, 48 h, or as needed. Cells were harvested by centrifugation and washed once in cold PBS. Total cellular RNA was then extracted. To measure the relative level of TK mRNA in various total RNA preparations, reverse transcription and quantitative PCR using real time PCR analysis were used. See, Ghosh, S. K., Forman, L. W., Akinsheye, I., Perrine, S. P., Faller, D. V.: Short discontinuous sodium butyrate exposure efficiently sensitizes latently EBV infected cells towards nucleoside analogue-mediated growth inhibition, Blood Cells Mol. Diseases (2007), 38:57-65. The relative level of TK expression in a sample was calculated following normalization of β-actin expression level.

HIV-1 = settings: OD, converted to pg of protein
Method: Virus production (p24 release) was examined in an HIV-1-infected monocyte line. Cells were treated or not treated with HDAC-inhibitors and other compounds. P24 release expressed as optical density (“OD”) (FIG. 13), and then converted to pg of protein (FIG. 14). […] DMSO was vehicle for some of the compounds tested.

P3HR1 cells [1] = type: cell-based, human; settings: for effective concentration: in the presence of GCV
Method: as §1
(§2) The EBV-positive B lymphoma cell line P3HR1 was used in the study. The P3HR1 cell line was originally derived from Burkitt's lymphoma patient. EBV maintains a latent state of replication in this cell line. These cells were maintained in RPMI 1640 with 10% fetal bovine serum containing 100 U penicillin per ml and 100 μg streptomycin per ml.
To test the sensitivity of EBV-positive lymphoma cells towards HDAC inhibitors, P3HR1 cells were treated with HDAC inhibitors in the presence of one anti-viral drug. At the end of the assay, the efficacy of the HDAC inhibitors was assessed by measuring the inhibition of cell growth compared to untreated cells.
(§3) Healthy, actively-growing P3HR1 cells were harvested and resuspended in fresh growth media. Cells were seeded in wells. Appropriate dilutions of HDAC inhibitors were added to certain wells, some of which received an anti-viral drug (such as GCV at 50 μM concentration). At 72 hrs, 800 μl of culture fluid was removed from each well. Wells were then refed with 1.0 ml fresh growth media without HDAC inhibitors. Fresh GCV solution was added to the wells that originally received GCV at the same initial concentration. On day 6, cell morphology was observed under microscope and viable cell counts in each individual wells were determined by trypan blue dye exclusion method using an automated cell counter (Countess, Invitrogen).

P3HR1 cells [2] = type: cell-based, human; settings: then GCV for up to 6 days
P3HR1 cells [3] = test: Titration / toxicity of HDAC inhibitors alone on P3HR1 cells; type: cell-based, human
Method: as §3

P3HR1 cells [4] = type: cell-based, human
Method: as §2, with “throughout these assays.” for “in the study.”, “Cells” for “These cells”, “ml. […] Viable cell counts were measured and toxicity was expressed as percentage of cell growth compared to untreated cells. As shown in FIG. 2A and FIG. 2B, PCV was less toxic to the cells compared to GCV.” for “ml.”

EBV-TK = test: Induction of EBV-TK in EBV-immortalized B-cells and patient-derived tumor cells; type: cell-based, Epstein-Barr virus; settings: for expression of viral thymidine kinase and other viral protein kinases: EBV-infected lymphocytes
Description: In some embodiments, inducing agents include arginine butyrate and/or other histone deacetylase inhibitors. […] This expression of a viral gene can be used as a point for attack by anti-viral agents, allowing for treatment of latent infections.
Treatment of patients with viral-associated tumors such as EBV with inducing agents such as arginine butyrate, to induce the expression of EBV-TK/EBV-PK, and GCV, to eliminate EBV-TK/EBV-PK expressing tumor cells, is an effective, non-toxic therapy. […] Without wishing to be bound by theory, it is believed that just the presence of the EBV genome in latent form would make the tumor susceptible to this combination protocol.

Compound: Cc1[nH]c2ccccc2c1CCNCc1ccc(/C=C/C(=O)NO)cc1 [LBH589]
- EBV-TK expression in the tumor cells (EBV TK): strongly induced
- TK expression level (EBV TK; compared to optimum concentration of NaB (2.5 mM)): quite high
- virus production (p24 release) (HIV-1): active
- concentration with activity in combination with GCV comparable to NaB at 1.0 mM (P3HR1 cells [1]): 50 nM
- effective concentration (P3HR1 cells [1]): 50 to 100 nM

Compound: Nc1ccccc1NC(=O)c1ccc(CNC(=O)OCc2cccnc2)cc1 [MS-275, 3-pyridinylmethyl [[4-[[(2-aminophenyl)amino]carbonyl]phenyl]methyl] carbamate]
- EBV-TK expression in the tumor cells (EBV TK): strongly induced
- concentration strongly inducing TK expression (EBV TK): ≥ 500 nM
- time post treatment at which TK expression was induced (EBV TK): 6 h
- concentration with activity in combination with GCV comparable to NaB at 1.0 mM (P3HR1 cells [1]): 500 nM
- effective concentration (P3HR1 cells [1]): 200 to 500 nM
- exposure sensitizing cells to GCV-mediated effects as efficiently as 72 hr continuous treatment (P3HR1 cells [2]): 24 h

Compound: CCCC(=O)[O-].[Na+] [NaB, sodium butyrate]
- cell growth, HDAC inhibitor alone (P3HR1 cells [3]; NaB at concentration higher than 1.0 mM): reduces cell growth to a significant degree
- reduction of growth compared to cells treated with NaB or GCV alone (P3HR1 cells [1]; NaB+GCV): up to 50%
- optimal concentration (P3HR1 cells [1]; combination with GCV): 1.0 mM

Compound: Nc1nc2c(ncn2CCC(CO)CO)c(=O)[nH]1 [PCV, penciclovir]
- toxicity (percentage of cell growth compared to untreated cells) (P3HR1 cells [4]): less toxic
- inhibition of cell growth at higher concentrations (P3HR1 cells [4]; PCV at higher concentrations, combination with Na-butyrate): did not change significantly

Compound: O=C(/C=C/c1cccc(S(=O)(=O)Nc2ccccc2)c1)NO [PXD101]
- TK expression (EBV TK): high level

Compound: CCC(Nc1ncnc2ccccc12)C(=O)O (stereo not drawn) [RB3]
- virus production (p24 release) (HIV-1): levels similar to the control of vehicle alone

Compound: O=C(CCCCCCC(=O)Nc1ccccc1)NO [SAHA, suberoyl anilide hydroxamic acid]
- TK expression level (EBV TK; compared with efficient concentrations of butyrate (1.0 mM)): higher level

Compound: CCC(C)(C)C(=O)O [ST20, 2,2-dimethyl butyrate]
- virus production (p24 release) (HIV-1): levels similar to the control of vehicle alone

Compound: O=C(CCCCCN1C(=O)c2cccc3cccc(c23)C1=O)NO [Scriptaid]
- effect with GCV in reducing cell growth (P3HR1 cells [1]; especially at 500 nM and 1 μM): strong synergistic effect

Compound: CCCC(CCC)C(=O)O [VA, valproic acid]
- efficiency in inducing TK expression (EBV TK; compared with NaB): less efficient than NaB
- activity in combination with GCV on cell growth / cell killing (P3HR1 cells [1]): very similar activity

Compound: CCC(=O)CCCCC[C@@H]1NC(=O)[C@H]2CCCCN2C(=O)[C@H]([C@@H](C)CC)NC(=O)[C@H](Cc2cn(OC)c3ccccc23)NC1=O [apicidin]
- toxicity to the cells (P3HR1 cells [3]; 500 nM): very toxic
- concentration quite toxic to the cells (P3HR1 cells [3]; apicidin alone): higher than 200 nM
- virus production (p24 release) (HIV-1): active
- reduction of cell growth over cells treated with apicidin alone (P3HR1 cells [1]; 100 nM and 200 nM, with GCV): 40-50%

Compound: CC(C)C(N)=O [isobutyramide]
- expression of viral thymidine kinase and other viral protein kinases (EBV-TK): enhance expression

Compound: CCCCCCCC(=O)SCC/C=C/[C@@H]1CC(=O)NCc2nc(cs2)C2=N[C@@](C)(CS2)C(=O)N[C@@H](C(C)C)C(=O)O1 [largazole]
- virus production (p24 release) (HIV-1): active

Compound: CCCCCCCCCCCCCC(=O)O[C@@H]1[C@@H](C)[C@@]2(O)[C@@H](C=C(CO)C[C@]3(O)C(=O)C(C)=C[C@@H]23)[C@@H]2C(C)(C)[C@]12OC(C)=O [phorbol myristate acetate]
- virus production (p24 release) (HIV-1): active

Compound: CC(C=CC(=O)NO)=CC(C)C(=O)c1ccc(N(C)C)cc1 (stereo not drawn) [trichostatin A, 7-[4-(dimethylamino)phenyl]-N-hydroxy-4,6-dimethyl-7-oxohepta-2,4-dienamide]
- virus production (p24 release) (HIV-1): active

Compound: Oxamflatin
- activity in combination with GCV on cell growth / cell killing (P3HR1 cells [1]): synergistic activity
- activity level (growth suppression) with GCV (P3HR1 cells [1]; at 200 nM, compared with 1.0 mM NaB): more than what typically seen with 1.0 mM NaB

Compound: arginine butyrate
- EBV-TK activity (EBV-TK; EBV-immortalized B-cells and patient-derived tumor cells): induces EBV-TK activity
- expression of viral thymidine kinase and other viral protein kinases (EBV-TK): enhance expression
- virus production (p24 release) (HIV-1): active
